Data set [1] has as its system alt-NHEJ. In words: EJ-DR 384-well imaging assay, alt-NHEJ (RFP) readout. As to conditions: for Selectivity Index (HR IC50/alt-NHEJ IC50) / selectivity index SI (CT IC50/alt-NHEJ IC50): ratio; for Selectivity Index (HR IC50/alt-NHEJ IC50): Supplementary Table 2.
Excerpt: (§4) The EJ-DR system was made in the U2OS cell line, which provides a simultaneous read-out of alt-NHEJ and HR activity in cells in response to induced DSBs. The cell line consists of a repair template and a reporter vector. When both these elements are chromosomally integrated, cleavage of a restriction enzyme site in the repair template, induced by ligand addition, causes a DSB. Depending on which DSB repair pathway is utilized, cells either express GFP if HR is used to repair the break site using the downstream homology template near the restriction enzyme site, or RFP if alt-NHEJ is involved in ligation of the cut ends.
(§5) An overview of the workflow of this assay is presented in Figure 1A, which starts with the addition of the test compounds and DSB ligands, followed by a media wash 24 hours later to terminate DSB induction, and then live cell imaging 96 hours later. After live cell imaging, we quantify the individual intensities of GFP and RFP signal in cells using the IN Cell imager. We then use the intensity measurements of individual cells in each channel and plot these intensities as a histogram to threshold out baseline levels of GFP and RFP intensity in the absence of ligands (Figure 1B and 1C). After applying the threshold, the percent of GFP and RFP-positive cells is calculated as a readout of induction of HR and alt-NHEJ activity, respectively.
(§6) In addition to quantifying HR and alt-NHEJ activities, cytotoxicity in the absence of DSB ligands (CT) was also evaluated by quantifying the number of Hoeschst 33342-stained cells, allowing us to better understand the margin between on-target and presumable off-target, DNA repair-independent effects. IC50 values of HR inhibition, alt-NHEJ inhibition, and CT were used to calculate the “selectivity index” (SI) (defined as the ratio of CT IC50/alt-NHEJ IC50) and alt-NHEJ selectivity defined as HR IC50/alt-NHEJ IC50.
(§7) The EJ-DR cell line was created in the U2OS cells (a human osteosarcoma cell line), and contained a stably integrated EJ-RFP plasmid to measure alt-NHEJ repair and a DR-GFP plasmid to measure HR repair, and has been previously described [9]. The EJ-DR cell line was cultured in high glucose Dulbecco’s modified Eagle’s medium (DMEM; Thermo Fisher Scientific) with L-glutamine containing 10% tetracycline-free (tet-free) fetal bovine serum (FBS; Takara Bio Inc. and Atlanta Biologics) and 1% Penicillin Streptomycin (Thermo Fisher Scientific). Tet-free FBS was used to prevent any expression of the tetracycline-inducible EJ-RFP system from residual tetracycline found in most commercially available FBS. All cells were maintained at 37°C with 5% CO2.
(§8) The EJ-DR cells were plated in 384-well imaging plates at 2500 cells/well. 24 hours later, the DSB ligands, Triamcinolone Acetonide (TA; Sigma-Aldrich Co., LLC) and Shield-1 (Takara Bio Inc.), responsible for inducing the DSBs, were added for a final concentration of 100 nM TA and 1 μM Shield-1. Test compounds were also added at the same time using Echo 550 Acoustic Dispenser (Labcyte). A separate plate was seeded to test for cytotoxicity of the test compounds in the absence of the DSB ligands. […] The DSB ligands were washed out 24 hours after addition. 96 hours after addition of the ligands and test compounds, the media was washed off and cells were incubated with Hoechst nuclear stain in Live Cell Imaging Solution (Thermo Fisher Scientific). Plates were rinsed and prepared for immediate live cell imaging using GE IN Cell 2200 (Cytiva Life Sciences).
Data set [2] deals with T1, CYP2D6 (Homo sapiens, UniProt P10635).
T1 construct: tissue Eurofins Scientific; host or cells: human liver microsomes
Nature of the data set: Cytochrome P450 inhibition assay in human liver microsomes, CYP2D6. The class given is in vitro ADME. As for the experimental part: (§1) CYP inhibition assays were performed by Eurofins Scientific. Test compounds were incubated with human liver microsomes, followed by compound detection using high performance liquid chromatography with tandem mass spectrometry (HPLC-MS/MS).

Data set [3] deals with T2, CYP3A4 (Homo sapiens, UniProt P08684).
T2 construct: tissue Eurofins Scientific; host or cells: human liver microsomes
Nature of the data set: Cytochrome P450 inhibition assay in human liver microsomes, CYP3A4. The settings on record: human liver microsomes. The class given is in vitro ADME. As for the experimental part:
as §1

The test system of data set [4] is EJ-DR U2OS cells. In words: Cytotoxicity in the absence of DSB ligands (CT), Hoechst cell count. The class given is cell-based, human. The settings on record: Supplementary Table 2, mean ± SEM of four technical replicates.
Description: (§9) In addition to quantifying HR and alt-NHEJ activities, cytotoxicity in the absence of DSB ligands (CT) was also evaluated by quantifying the number of Hoeschst 33342-stained cells, allowing us to better understand the margin between on-target and presumable off-target, DNA repair-independent effects. IC50 values of HR inhibition, alt-NHEJ inhibition, and CT were used to calculate the “selectivity index” (SI) (defined as the ratio of CT IC50/alt-NHEJ IC50) and alt-NHEJ selectivity defined as HR IC50/alt-NHEJ IC50. […] (Figure 1E).
(§10) The EJ-DR cell line was cultured in high glucose Dulbecco’s modified Eagle’s medium (DMEM; Thermo Fisher Scientific) with L-glutamine containing 10% tetracycline-free (tet-free) fetal bovine serum (FBS; Takara Bio Inc. and Atlanta Biologics) and 1% Penicillin Streptomycin (Thermo Fisher Scientific). […] All cells were maintained at 37°C with 5% CO2.
(§11) The EJ-DR cells were plated in 384-well imaging plates at 2500 cells/well. 24 hours later, the DSB ligands, Triamcinolone Acetonide (TA; Sigma-Aldrich Co., LLC) and Shield-1 (Takara Bio Inc.), responsible for inducing the DSBs, were added for a final concentration of 100 nM TA and 1 μM Shield-1. Test compounds were also added at the same time using Echo 550 Acoustic Dispenser (Labcyte). A separate plate was seeded to test for cytotoxicity of the test compounds in the absence of the DSB ligands. […] The DSB ligands were washed out 24 hours after addition. 96 hours after addition of the ligands and test compounds, the media was washed off and cells were incubated with Hoechst nuclear stain in Live Cell Imaging Solution (Thermo Fisher Scientific). Plates were rinsed and prepared for immediate live cell imaging using GE IN Cell 2200 (Cytiva Life Sciences). Images were analyzed using InCell Analyzer software (Cytiva Life Sciences). Nuclei were segmented based on the Hoechst staining, and the intensity of the GFP and RFP signals in control populations were measured and binned into histograms to determine signal intensity threshold. The GFP and RFP intensity of all wells was then analyzed, and the percent of positive cells with GFP and RFP intensity above the threshold was calculated to determine the induction of signal. The DAPI cell counts were used to determine the relative cytotoxicity of test compounds in the absence of induced DNA damage.
Data set [5] relates to HR. Nature of the data set: EJ-DR 384-well imaging assay, HR (GFP) readout. The settings on record: read-out: HR IC50.
Excerpt: as §4, §5, §6, §7, §8
The nature of data set [6]: Cytotoxicity in the absence of DSB ligands (CT), Hoechst cell count. As to conditions: human, EJ-DR U2OS cells, no DSB ligands. Type of data set: cell-based, human.
Description: as §9, §10, §11
Data set [7] addresses T3, T type Cav 3.2 (Homo sapiens, UniProt O95180).
T3 construct: host or cells: HEK293
In words: Calcium channel blocking study, T-type Cav3.2. The class given is cell-based. The settings on record: HEK293 cells stably expressing the channel.
Description: (§12) Calcium channel blocking studies were performed by Charles River Laboratories in Chinese Hamster Ovary (CHO) and HEK293 cell lines stably expressing L-Type and T-type calcium channels, respectively, under tetracycline induction in accordance with a previously published study [46]. Data acquisition and analysis was performed using the IonWorks Quattro™ or Barracuda system software (Molecular Devices Corporation).

Data set [8] addresses T4, L type Cav 1.2 (Homo sapiens, UniProt Q13936).
T4 construct: host or cells: CHO
Nature of the data set: Calcium channel blocking study, L-type. As to conditions: CHO cells stably expressing the channel. Type of data set: cell-based.
Description: as §12

Data set [9] can be described thus: In vivo pharmacokinetic study, brain tissue. The settings on record: oral 30 mg/kg, female athymic nude mice. As to the method: (§2) These measurements were used to calculate various pharmacokinetic parameters critical to bioavailability including time to reach maximum concentration (tmax), maximum concentration achieved (Cmax), and half-life (t1/2) (Figure 5C, 5D, Supplementary Table 1).
(§3) Compound concentrations were measured at these time-points using Liquid Chromatography with tandem mass spectrometry (LC-MS-MS). Pharmacokinetic studies were performed by orally dosing test compounds at 30 mg/kg dissolved in 50% PEG400 and 50% water in female athymic nude mice. Plasma and brain tissue concentration were measured using mass spectrometry (MS).

A short description of data set [10]: In vivo pharmacokinetic study, plasma. As for the experimental part: as §2, §3
Data set [11] addresses T5, T type Cav 3.1 (Homo sapiens, UniProt O43497).
T5 construct: host or cells: HEK293
Nature of the data set: Calcium channel blocking study, T-type Cav3.1. The class given is cell-based. The settings on record: HEK293 cells stably expressing the channel.
Description: as §12

Data set [12] deals with T6, T type Cav 3.3 (Homo sapiens, UniProt Q9P0X4).
T6 construct: host or cells: HEK293
Nature of the data set: Calcium channel blocking study, T-type Cav3.3. The class given is cell-based. The settings on record: HEK293 cells stably expressing the channel.
Description: as §12

For data set [13], the target named is T7, Human hERG (Kv11.1) (Homo sapiens, UniProt Q12809).
T7 construct: host or cells: CHO-K1
In words: Automated hERG inhibition patch clamp assay. The class given is cell-based. As to conditions: for IC50: patch clamp, CHO-K1 cells; for SIhERG (hERG IC50/alt-NHEJ IC50), called fold reduction in hERG potency: ratio. As for the experimental part:
Automated whole cell voltage clamp hERG inhibition assays were performed in Human hERG (Kv11.1) expressed in CHO-K1 cells optimized for automated patch clamp studies by Sophion Bioscience A/S [47].

[14] abbreviates: Homo sapiens, U2OS, read-out: alt-NHEJ IC50.
[15] abbreviates: Homo sapiens, read-out: alt-NHEJ IC50.
Setting [16] is: oral 30 mg/kg, female athymic nude mice.
Where [17] appears, read: read-out: alt-NHEJ IC50, EJ-DR U2OS cells, text and figures.
Where [18] appears, read: EJ-DR U2OS cells, text and figures.

Here are results for 10 compounds from paper PMC8092340 (Oncotarget, 2021).

Like-named read-outs stand apart in the source and are kept apart here.

T1 sequence (P10635 whole entry): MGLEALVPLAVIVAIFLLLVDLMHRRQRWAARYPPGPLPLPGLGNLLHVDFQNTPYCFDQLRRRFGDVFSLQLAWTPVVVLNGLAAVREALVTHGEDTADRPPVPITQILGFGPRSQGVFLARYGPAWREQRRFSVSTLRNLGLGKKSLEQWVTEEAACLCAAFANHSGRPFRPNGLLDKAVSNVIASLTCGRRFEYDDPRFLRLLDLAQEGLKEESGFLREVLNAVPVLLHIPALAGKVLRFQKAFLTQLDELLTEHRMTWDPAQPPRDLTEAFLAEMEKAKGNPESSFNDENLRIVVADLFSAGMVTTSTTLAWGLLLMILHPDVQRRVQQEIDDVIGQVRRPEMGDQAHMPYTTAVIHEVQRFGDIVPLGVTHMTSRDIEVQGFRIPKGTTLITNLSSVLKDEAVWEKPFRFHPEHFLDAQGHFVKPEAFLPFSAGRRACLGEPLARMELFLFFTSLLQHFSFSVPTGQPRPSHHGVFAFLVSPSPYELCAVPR
T7 sequence (Q12809 whole entry): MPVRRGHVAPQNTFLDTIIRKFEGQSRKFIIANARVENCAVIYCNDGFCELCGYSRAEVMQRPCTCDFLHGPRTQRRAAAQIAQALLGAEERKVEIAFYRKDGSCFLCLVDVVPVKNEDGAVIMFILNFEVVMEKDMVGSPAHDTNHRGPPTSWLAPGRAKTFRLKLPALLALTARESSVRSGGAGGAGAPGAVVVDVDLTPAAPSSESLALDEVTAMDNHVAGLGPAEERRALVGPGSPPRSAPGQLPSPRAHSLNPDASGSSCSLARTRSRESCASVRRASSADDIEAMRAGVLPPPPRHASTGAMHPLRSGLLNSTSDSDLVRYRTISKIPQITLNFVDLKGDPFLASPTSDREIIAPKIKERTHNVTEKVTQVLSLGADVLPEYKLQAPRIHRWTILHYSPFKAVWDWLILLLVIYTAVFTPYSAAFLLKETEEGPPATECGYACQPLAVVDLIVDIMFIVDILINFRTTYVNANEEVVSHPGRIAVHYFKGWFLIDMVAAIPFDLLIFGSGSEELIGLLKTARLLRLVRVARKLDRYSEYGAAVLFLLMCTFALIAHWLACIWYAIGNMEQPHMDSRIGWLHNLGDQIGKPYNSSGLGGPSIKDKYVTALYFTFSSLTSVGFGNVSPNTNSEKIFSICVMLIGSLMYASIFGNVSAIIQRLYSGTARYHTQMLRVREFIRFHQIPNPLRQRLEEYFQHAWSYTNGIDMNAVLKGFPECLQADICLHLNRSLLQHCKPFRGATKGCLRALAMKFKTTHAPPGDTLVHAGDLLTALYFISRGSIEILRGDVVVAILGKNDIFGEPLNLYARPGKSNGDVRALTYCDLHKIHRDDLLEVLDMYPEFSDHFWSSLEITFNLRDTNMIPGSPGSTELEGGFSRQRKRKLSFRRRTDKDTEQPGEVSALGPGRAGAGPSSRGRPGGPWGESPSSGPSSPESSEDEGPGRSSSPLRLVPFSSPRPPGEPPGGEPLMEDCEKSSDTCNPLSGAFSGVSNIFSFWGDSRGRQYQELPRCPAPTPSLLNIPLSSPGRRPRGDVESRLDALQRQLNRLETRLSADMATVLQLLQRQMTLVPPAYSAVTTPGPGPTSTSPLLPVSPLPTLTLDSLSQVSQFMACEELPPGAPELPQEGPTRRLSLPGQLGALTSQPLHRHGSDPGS
T2 sequence (P08684 whole entry): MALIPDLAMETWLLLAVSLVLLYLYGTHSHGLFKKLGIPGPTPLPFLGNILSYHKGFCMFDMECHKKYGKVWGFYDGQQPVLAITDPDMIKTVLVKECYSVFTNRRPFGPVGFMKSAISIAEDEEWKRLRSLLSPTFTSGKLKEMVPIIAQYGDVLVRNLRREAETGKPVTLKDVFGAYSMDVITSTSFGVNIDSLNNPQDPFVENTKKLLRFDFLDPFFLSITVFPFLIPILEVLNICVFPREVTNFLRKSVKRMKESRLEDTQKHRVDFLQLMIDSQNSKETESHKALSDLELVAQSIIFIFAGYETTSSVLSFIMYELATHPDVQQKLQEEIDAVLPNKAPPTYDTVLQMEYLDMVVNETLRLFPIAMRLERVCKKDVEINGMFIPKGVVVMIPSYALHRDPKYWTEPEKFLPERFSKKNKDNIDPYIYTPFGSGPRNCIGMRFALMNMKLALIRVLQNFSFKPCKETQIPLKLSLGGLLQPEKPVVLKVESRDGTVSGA
T3 sequence (O95180 whole entry): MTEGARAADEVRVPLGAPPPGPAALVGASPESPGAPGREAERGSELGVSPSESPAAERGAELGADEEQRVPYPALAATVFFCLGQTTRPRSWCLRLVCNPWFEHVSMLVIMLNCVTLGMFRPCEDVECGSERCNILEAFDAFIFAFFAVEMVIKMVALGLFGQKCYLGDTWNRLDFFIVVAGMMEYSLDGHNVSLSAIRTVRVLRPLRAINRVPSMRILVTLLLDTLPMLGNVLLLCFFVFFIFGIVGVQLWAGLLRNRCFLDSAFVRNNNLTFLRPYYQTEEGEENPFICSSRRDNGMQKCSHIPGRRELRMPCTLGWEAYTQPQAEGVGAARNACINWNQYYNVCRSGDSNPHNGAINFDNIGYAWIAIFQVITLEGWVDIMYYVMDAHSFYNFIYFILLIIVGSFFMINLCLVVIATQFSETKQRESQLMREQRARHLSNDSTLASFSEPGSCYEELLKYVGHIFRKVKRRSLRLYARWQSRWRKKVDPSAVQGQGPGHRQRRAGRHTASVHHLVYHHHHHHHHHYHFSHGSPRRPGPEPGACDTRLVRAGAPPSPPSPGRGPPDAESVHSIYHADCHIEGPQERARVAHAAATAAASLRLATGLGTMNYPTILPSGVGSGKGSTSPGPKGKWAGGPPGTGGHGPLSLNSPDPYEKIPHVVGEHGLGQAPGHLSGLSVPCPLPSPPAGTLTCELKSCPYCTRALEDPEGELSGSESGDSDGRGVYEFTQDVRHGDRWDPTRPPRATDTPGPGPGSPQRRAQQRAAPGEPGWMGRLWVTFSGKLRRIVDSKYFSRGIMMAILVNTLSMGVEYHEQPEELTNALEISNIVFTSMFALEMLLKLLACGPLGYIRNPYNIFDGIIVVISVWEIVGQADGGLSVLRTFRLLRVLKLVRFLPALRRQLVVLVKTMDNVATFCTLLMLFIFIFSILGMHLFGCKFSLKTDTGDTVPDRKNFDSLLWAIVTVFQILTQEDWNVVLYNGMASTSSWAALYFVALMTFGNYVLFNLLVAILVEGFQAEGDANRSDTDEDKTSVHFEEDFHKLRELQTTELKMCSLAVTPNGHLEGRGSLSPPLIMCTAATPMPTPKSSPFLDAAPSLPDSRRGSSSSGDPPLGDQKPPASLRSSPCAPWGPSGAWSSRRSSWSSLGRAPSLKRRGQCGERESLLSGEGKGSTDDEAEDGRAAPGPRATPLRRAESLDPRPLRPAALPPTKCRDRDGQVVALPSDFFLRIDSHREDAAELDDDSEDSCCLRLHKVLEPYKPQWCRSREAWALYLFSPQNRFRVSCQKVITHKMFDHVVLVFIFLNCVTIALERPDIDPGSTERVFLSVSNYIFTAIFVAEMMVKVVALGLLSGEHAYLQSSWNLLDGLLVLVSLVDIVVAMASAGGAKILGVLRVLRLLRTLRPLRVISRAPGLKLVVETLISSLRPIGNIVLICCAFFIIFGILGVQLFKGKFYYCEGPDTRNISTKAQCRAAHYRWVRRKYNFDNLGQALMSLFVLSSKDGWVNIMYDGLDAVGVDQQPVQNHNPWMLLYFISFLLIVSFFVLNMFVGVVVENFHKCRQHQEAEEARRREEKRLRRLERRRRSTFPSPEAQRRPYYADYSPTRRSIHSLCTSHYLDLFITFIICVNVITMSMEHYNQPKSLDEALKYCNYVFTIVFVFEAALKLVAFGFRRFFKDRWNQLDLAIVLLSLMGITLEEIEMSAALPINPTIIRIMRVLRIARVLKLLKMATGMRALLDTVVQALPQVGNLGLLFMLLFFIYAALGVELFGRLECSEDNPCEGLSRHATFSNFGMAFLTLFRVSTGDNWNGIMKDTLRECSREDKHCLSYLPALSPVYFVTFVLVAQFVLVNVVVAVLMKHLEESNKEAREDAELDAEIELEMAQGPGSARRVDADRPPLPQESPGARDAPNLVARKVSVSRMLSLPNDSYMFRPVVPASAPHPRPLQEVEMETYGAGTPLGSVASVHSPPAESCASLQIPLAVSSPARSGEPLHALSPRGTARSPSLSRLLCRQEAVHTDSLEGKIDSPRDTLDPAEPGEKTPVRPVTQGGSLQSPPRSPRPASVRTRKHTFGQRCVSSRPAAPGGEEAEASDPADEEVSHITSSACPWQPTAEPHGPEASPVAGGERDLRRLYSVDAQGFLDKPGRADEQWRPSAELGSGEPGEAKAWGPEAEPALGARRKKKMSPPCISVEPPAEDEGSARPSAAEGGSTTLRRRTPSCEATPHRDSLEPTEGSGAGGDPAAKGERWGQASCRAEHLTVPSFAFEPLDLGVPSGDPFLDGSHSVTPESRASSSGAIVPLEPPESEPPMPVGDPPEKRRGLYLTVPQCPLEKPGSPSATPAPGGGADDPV

As to `COCC(=O)OC1(CCN2CC(Oc3nccc4ccccc34)CC2CO)CCc2cc(F)ccc2C1C(C)C` (stereo not drawn) [YU252376], the half-inhibitory concentration (IC50) in data set [1] (setting [14]) worked out at 1100 nM; in data set [2] (human liver microsomes) it was 3.5 µM; in [3] it was 12.6 µM. Also, the selectivity ratio is roughly 3 in [2] (human, human liver microsomes, ratio, read-out: SICYP 2D6 (selectivity index of CYP, CYP2D6 IC50 to alt-NHEJ IC50), called fold decrease in CYP2D6 inhibition) and 11.4 in data set [3] (human, ratio, read-out: SICYP 3A4 (selectivity index of CYP, CYP3A4 IC50 to alt-NHEJ IC50), called fold decrease in CYP3A4 inhibition). The “SICYP 2D6 (selectivity index of CYP, CYP2D6 IC50 to alt-NHEJ IC50), called fold decrease in CYP2D6 inhibition” value in data set [2] (ratio) is reported as 3.18.

With `NC1(c2ccc(-c3nc4ccn5c(=O)[nH]nc5c4cc3-c3ccccc3)cc2)CCC1` [MK-2206], the 50% inhibitory concentration (IC50) in [4] (Homo sapiens, U2OS) worked out at 16.5 ± 2.56 µM; in [1] (setting [15]), 660 ± 310 nM; in data set [5] (Homo sapiens) it was 4.4 ± 5.17 µM. Besides, the “Selectivity Index (HR IC50/alt-NHEJ IC50)” value in [1] is given as 6.67.

For `NC(=O)Nc1cc(-c2cccc(F)c2)sc1C(=O)N[C@H]1CCCNC1` [AZD 7762], the IC50 is 0.13 ± 0.01 µM in data set [4] (Homo sapiens, U2OS); greater than 60000 nM in data set [1] (setting [15]); greater than 60 µM in data set [5] (Homo sapiens).

For the compound `CC(C)[C@H]1c2ccc(F)cc2CC[C@]1(O)CCN(C)CC(O)c1ccccc1` (stereo partly drawn) [YU241553], the IC50 at 96 h in [6] (figures, read-out: CT IC50 (cytotoxicity)) is 24 µM. Also, the IC50 in data set [1] (setting [14]) is 8870 nM. Moreover, the “selectivity index SI (CT IC50/alt-NHEJ IC50)” value in data set [1] came out at 2.71.

Regarding `CC(C)C1c2ccc(F)cc2CCC1(O)CCN1CC(Oc2ccc(Cl)cn2)CC1CO` (stereo not drawn) [YU252377], the half-inhibitory concentration (IC50) at 96 h in data set [6] (Table 1, read-out: Cytotoxicity IC50) is 14.8 µM. In addition, the IC50 in [1] (setting [14]) was 1530 nM; in data set [1] (Homo sapiens, read-out: nc-EJ IC50) it was 1500 nM; in data set [7] it was 5.6 µM; in data set [5] (Homo sapiens) it was greater than 60 µM; in [8], 6.3 µM; in data set [11], 5.3 µM. For the same compound, the half-maximal inhibitory concentration (IC50) in [12] came out at 8.2 µM; in [13] it was 6.43 µM. The “brain exposure” value in [9] is given as “did not achieve detectable brain exposure”. Further, in data set [10] (female, athymic nude, mouse, plasma, po, 30 mg/kg), the half-life is 109 min. Further, the peak concentration (Cmax) in data set [10] (female, athymic nude, mouse, plasma, po, 30 mg/kg, Maximum concentration (Cmax), oral 30 mg/kg, female athymic nude mice, YU252222 given as methyl ester prodrug) was determined as 68.9 ng/mL. The “% AUC Extrapolation” value in data set [10] (setting [16]) is on record as 1.1%. Also, in data set [10] (setting [16]), the “AUC(0-x)/Dose” value is 5.83 ng·h/mL/mg/kg. For the same compound, in data set [10] (setting [16]), the Cmax/Dose is listed as 2.30 ng/mL/mg/kg. The “Time at which Cmax was observed (tmax)” value in [10] (setting [16]) is 1.0 h. The “Area under concentration vs time curve (AUC) (0-x)” value in data set [10] (oral 30 mg/kg, female athymic nude mice, YU252222 given as methyl ester prodrug) was 175 ng·h/mL. For the same compound, the “Maximum concentration (Cmax)” value in data set [10] (oral 30 mg/kg, female athymic nude mice, YU252222 given as methyl ester prodrug, 30 mg/kg) is less than 100 ng/mL. In data set [13], the “SIhERG (hERG IC50/alt-NHEJ IC50), called fold reduction in hERG potency” value is on record as 4.20.

As to `O.O=C(O)C(F)(F)F.O=c1[nH]c2ccccc2n1C1CCN(Cc2ccc(-c3nc4cc5[nH]cnc5cc4nc3-c3ccccc3)cc2)CC1` [Akt-1/2 inhibitor], the “selectivity index SI (CT IC50/alt-NHEJ IC50)” value in data set [1] is listed as 77.67. Moreover, the IC50 was 150 nM in [1] (setting [17]) and greater than 10 µM in data set [5] (setting [18]).

`NC1(C(=O)N[C@@H](CCO)c2ccc(Cl)cc2)CCN(c2ncnc3[nH]ccc23)CC1` [AZD 5363]: the IC50 came out at 48.5 ± 73 µM in data set [4] (Homo sapiens, U2OS); 16900 ± 26500 nM in data set [1] (setting [15]); 31.6 ± 59.2 µM in data set [5] (Homo sapiens). For the same compound, the “Selectivity Index (HR IC50/alt-NHEJ IC50)” value in data set [1] is on record as 1.87.

Turning to `C[C@H]1COCCN1c1cc(C2(S(=O)(=O)C3CC3)CC2)nc(-c2ccc(NC(=S)NCCO)cc2)n1` [mTORC1/2 inhibitor, AZD 3147], the “selectivity index SI (CT IC50/alt-NHEJ IC50)” value in data set [1] was determined as 7.22. The IC50 in [1] (setting [17]) is 90 nM; in data set [5] (setting [18]) it was 7.18 µM.

Take `CCc1cncnc1N1CCN(Cc2nc3ccc(C(F)(F)F)cc3[nH]2)CC1` [PF-04708671]: the IC50 was 36.9 ± 3.82 µM in data set [4]; greater than 60000 nM in data set [1] (read-out: alt-NHEJ IC50, EJ-DR assay, Supplementary Table 2, mean ± SEM of four technical replicates); greater than 60 µM in [5] (EJ-DR assay, Supplementary Table 2, mean ± SEM of four technical replicates).

`COC[C@@H]1C[C@@H](Oc2nccc3ccccc23)CN1CC[C@@]1(O)CCc2cc(F)ccc2[C@@H]1C(C)C` [YU252373]: in [1] (setting [14]), the concentration for half-maximal inhibition (IC50) worked out at 1700 nM. In data set [13], the IC50 amounted to 9.8 µM and the “SIhERG (hERG IC50/alt-NHEJ IC50), called fold reduction in hERG potency” value is on record as 5.76.
